Assay results reported in article PMC5847527, “Identification of a novel 2-oxindole fluorinated derivative as in vivo antitumor agent for prostate cancer acting via AMPK activation” (Scientific Reports, 2018).

Experiments:
[1] = tested on: LNCaP cells; test: Cell viability by MTT assay, LNCaP; assay type: cell-based, human
Procedure: Figure 3 Comparison of the effect of 2-oxindole fluorinated derivatives on the proliferation of human prostate cancer cells. (A) Normal (PTN2 and RWPE-1) and cancer (PC3,DU145 and LNCaP) prostate cells were treated with different doses of the compounds for 24 hours and cell viability was monitored by MTT assay. […] (C) PC-3, DU145 and LNCaP cells were treated with 25 µM of compound 8c for different times. Values were normalized with the control and represent the mean ± SD of at least three independent experiments. *p < 0.05 and **p < 0.01 compared to control by the Student’s - test.
Human prostate cancer epithelial PC-3, DU145 and LNCaP and human prostate normal RWPE-1 cells were purchased from American Type Culture Collection (ATCC CRL-1435 CRL-1740 and CRL 11609 respectively) (Rockville, MD, USA). The human prostate normal PNT2 cell line was purchased to ECACC (European Collection of Cell cultures, Salisbury, SP4 0JG, UK). Cells were routinely grown in RPMI 1640 medium supplemented with 100 IU/ml penicillin G sodium, 100 µg/ml streptomycin sulfate, 0.25 µg/ml amphotericin B (Invitrogen, Paisley, UK) and 10% fetal calf serum. Cells were used at passages between 10–20. For treatment experiments, cells were plated and grown over night, the medium was then replaced with serum-free RPMI 1640 for 24 hours and then incubated with different doses of the compounds for the indicated times.
Cell viability was determined by 3-(4,5-dimethylthiazol-2-yl)-2,5-diphenyltetrazolium bromide (MTT) (Sigma-Aldrich) method. […] The optical density in each well was evaluated by measurement of absorbance at 490 and 650 nm using a microplate reader (ELX 800 Bio-Tek Intruments, INC). IC50 values were calculated using GraphPad Prism vs 6.0 (GraphPad Software, Inc, La Jolla, CA, USA). Cell viability was also determined by counting viable and dead cells by Trypan blue staining. Trypan blue positive and negative cells were counted using a Countess^TM automated cell counter (Invitrogen, Carlsbad, CA, USA). Results were expressed in relation to total number of cells counted.

[2] = Tolerability in PC-3 xenograft mice (weight, serum parameters, liver); assay type: in vivo; conditions: 5 mg/Kg daily, 15 days
Text: To validate the therapeutic value of the compound 8c against castration-resistant prostate cancer a murine xenograft model was employed. Due to the potent effect of compound 8c on the aggressive PC-3 cell line and in order to avoid unnecessary wasting of animals according to the 3 Rs guidelines (reduction, replacement, refinement) for the use of animals in research, we only use PC-3 cells for the in vivo studies. PC-3 tumors were induced in nude mice by subcutaneous injection of cells in the right flank of the mouse. When tumors reached a 70 mm^3 volume, mice were daily treated with 5 mg/Kg of compound 8c. In vehicle-treated mice, an increase in tumor growth volume was observed during the course of the study and at the end of experimentation (Fig. 8A).
Male immunodeficient nude-Foxn1 (nu/nu) mice (Envigo RMS, Barcelona, Spain), 4 to 6 week old, were used for all xenograft studies. […] Tumors were measured with external calipers and volume was calculated by the modified ellipsoidal formula as volume = length × (width)^2 × 0.52 mm^3 [52],[53]. At the end of the study, the mice were sacrificed by placing them in a CO2 gas-filled chamber, and the excised tumors were recovered and homogenized in lysis buffer for protein quantification and Western blotting. […]

SMILES: O=C1Nc2ccccc2C1(F)Cc1ccc(-c2ccccc2)o1 (stereo not shown) [Compound 8c, 3-fluoro-3-((5-phenylfuran-2-yl)methyl)indolin-2-one]
- inhibitory efficacy on cells viability at 50 μM ([1]; 50 μM): 85%
- IC50 ([1]; Homo sapiens, MTT, 24 hours): 30 µM
- liver morphology [2]: Liver morphology was normal
- mice weight or animal welfare [2]: No effect on mice weight or animal welfare
